Test results reported in patent US4696928A, “Substituted dihydroimidazo[1,2-a]quinoxalines” (G. D. Searle & Co., priority 1985, dated 1987).
Values after ≈ are worked out from the molar mass of the structure shown. Like-named read-outs stand apart in the source and are kept apart here.

Tests used:
B. fragilis NCTC 10581 = assay: MIC/MBC broth microdilution, strain A; type: cell-based; conditions: Bacteroides fragilis, NCTC10581, 48 h; for MBC: 99.9% reduction in viable count after 48 h; for MIC: 37° C., anaerobic
B. fragilis NCTC 9343 = assay: MIC/MBC broth microdilution, strain B; type: cell-based; conditions: Bacteroides fragilis, NCTC9343, 48 h; for MBC: 99.9% reduction in viable count after 48 h; for MIC: 37° C., anaerobic
B. fragilis NCTC 9344 = assay: MIC/MBC broth microdilution, strain C; type: cell-based, Bacteroides fragilis; conditions: Bacteroides fragilis, NCTC9344, 48 h; for MIC: 37° C., anaerobic; for MBC: 99.9% reduction in viable count after 48 h, read-out: MBC
[1] = test system: B. fragilis MZ-R ATCC 11295; assay: MIC/MBC broth microdilution, strain D; type: cell-based; conditions: Bacteroides fragilis, ATCC11295, 48 h; for MBC: 99.9% reduction in viable count after 48 h
B. fragilis WS-1 = assay: MIC/MBC broth microdilution, strain E; type: cell-based, Bacteroides fragilis; conditions: Bacteroides fragilis, WS1, 48 h; for MBC: 99.9% reduction in viable count after 48 h; for MIC: 37° C., anaerobic
[2] = test system: Clostridium perfringens NCTC 523; assay: microbe, parasite or virus in culture; type: cell-based; conditions: NCTC523
[3] = test system: Clostridium perfringens NCTC 8237; assay: microbe, parasite or virus in culture; type: cell-based; conditions: NCTC8237
[4] = test system: Clostridium difficile NCIB 10666; assay: MIC vs. panel of anaerobes; type: cell-based; conditions: Clostridioides difficile, NCIB10666
[5] = test system: Clostridium difficile Cytotoxic 1; assay: MIC vs. panel of anaerobes; type: cell-based; conditions: Clostridioides difficile
[6] = test system: Campylobacter fetus ss.jejuni ATCC 29428; assay: MIC vs. panel of anaerobes; type: cell-based; conditions: ATCC29428
[7] = test system: Fusobacterium necrophorum ATCC 11295; assay: MIC vs. panel of anaerobes; type: cell-based; conditions: ATCC11295; Fusobacterium necrophorum ATCC 11295; read-out: MIC
[8] = test system: Bacteroides melanogenicus NCTC 9336; assay: MIC vs. panel of anaerobes; type: cell-based; conditions: NCTC9336
[9] = test system: Peptostreptococcus anaerobicus; assay: MIC vs. panel of anaerobes; type: cell-based
[10] = test system: Propionebecterium acnes NCTC 737; assay: MIC vs. panel of anaerobes; type: cell-based
[11] = test system: Propionebacterium acnes NCTC 7337; assay: MIC vs. panel of anaerobes; type: cell-based
B. Fragilis ATCC 23745 = conditions: Bacteroides fragilis, ATCC23745, in Mus musculus, po, 48 h, read-out: Dose giving 1 log reduction, p.o., after infection and twice daily for 2 days; 1 log (90%) reduction of CFU/ml liver homogenate vs untreated; compound of Example
[12] = Clostridium difficile NCIB 10666, read-out: MIC
[13] = Bacteroides melanogenicus NCTC 9336, read-out: MIC
[14] = Peptostreptococcus anaerobicus, read-out: MIC

[O-][N+]1=C(c2ccccc2)C2=NCCN2c2cc(F)ccc21 [Example 1, 1,2-Dihydro-8-fluoro-4-phenylimidazo[1,2-a]quinoxaline 5-oxide]
MBC (B. fragilis NCTC 10581): 3.1 µg/mL (≈ 11 µM) | MIC (B. fragilis NCTC 10581; 48 h): 3.1 µg/mL (≈ 11 µM) | MBC (B. fragilis NCTC 9343): 3.1 µg/mL (≈ 11 µM) | MIC (B. fragilis NCTC 9343; 48 h): 3.1 µg/mL (≈ 11 µM) | MIC (B. fragilis NCTC 9344; read-out: MIC): 1.5 µg/mL (≈ 5.33 µM) | MBC (B. fragilis NCTC 9344): 1.5 µg/mL (≈ 5.33 µM) | MIC [1]: 0.8 µg/mL (≈ 2.84 µM) | MBC ([1]; strain D (MZ-R)): 1.5 µg/mL (≈ 5.33 µM) | MBC (B. fragilis WS-1): 3.1 µg/mL (≈ 11 µM) | MIC (B. fragilis WS-1; 48 h): 3.1 µg/mL (≈ 11 µM) | MIC [2]: 3.1 µg/mL (≈ 11 µM) | MIC [3]: 3.1 µg/mL (≈ 11 µM) | MIC [4, 12]: < 0.8 µg/mL | MIC [5]: < 0.8 µg/mL | MIC [6]: 2.5 µg/mL (≈ 8.89 µM) | MIC [7]: < 0.8 µg/mL | MIC [8, 13]: 25 µg/mL (≈ 88.9 µM) | MIC [9, 14]: 25 µg/mL (≈ 88.9 µM) | MIC [10]: 50 µg/mL (≈ 178 µM) | MIC [11]: 50 µg/mL (≈ 178 µM) | ED (1 log reduction) (B. Fragilis ATCC 23745): 7.57 mg/kg

[O-][N+]1=C(c2ccccc2)C2=NCCN2c2cc(F)c(F)cc21 [Example 2, 1,2-Dihydro-7,8-difluoro-4-phenylimidazo[1,2-a]quinoxaline 5-oxide]
MIC (B. fragilis NCTC 10581; read-out: MIC): 0.6 µg/mL (≈ 2 µM) | MBC (B. fragilis NCTC 10581): 0.6 µg/mL (≈ 2 µM) | MIC (B. fragilis NCTC 9343; read-out: MIC): 0.15 µg/mL (≈ 0.501 µM) | MBC (B. fragilis NCTC 9343): 0.15 µg/mL (≈ 0.501 µM) | MIC (B. fragilis NCTC 9344; read-out: MIC): 0.6 µg/mL (≈ 2 µM) | MBC (B. fragilis NCTC 9344): 0.6 µg/mL (≈ 2 µM) | MIC [1]: 0.08 µg/mL (≈ 0.267 µM) | MBC ([1]; strain D (MZ-R)): 0.15 µg/mL (≈ 0.501 µM) | MIC (B. fragilis WS-1; read-out: MIC): 0.6 µg/mL (≈ 2 µM) | MBC (B. fragilis WS-1): 0.6 µg/mL (≈ 2 µM) | MIC [2]: 6.2 µg/mL (≈ 20.7 µM) | MIC [3]: 6.2 µg/mL (≈ 20.7 µM) | MIC [4]: < 0.8 µg/mL | MIC [5]: 6.2 µg/mL (≈ 20.7 µM) | MIC [6]: 12.5 µg/mL (≈ 41.8 µM) | MIC [7]: 3.1 µg/mL (≈ 10.4 µM) | MIC [8, 13]: 6.2 µg/mL (≈ 20.7 µM) | MIC [9, 14]: 12.5 µg/mL (≈ 41.8 µM) | MIC [10]: 25 µg/mL (≈ 83.5 µM) | MIC [11]: 25 µg/mL (≈ 83.5 µM) | ED (1 log reduction) (B. Fragilis ATCC 23745): < 40 mg/kg

[O-][N+]1=C(c2ccccc2)C2=NCCN2c2nc(Cl)ccc21 [Example 3, 8-Chloro-1,2-dihydro-4-phenylimidazo[1,2-a]pyrido[3,2-e]-pyrazine 5-oxide]
MIC (B. fragilis NCTC 10581; read-out: MIC): 12.5 µg/mL (≈ 41.8 µM) | MBC (B. fragilis NCTC 10581): 12.5 µg/mL (≈ 41.8 µM) | MIC (B. fragilis NCTC 9343; read-out: MIC): 12.5 µg/mL (≈ 41.8 µM) | MBC (B. fragilis NCTC 9343): 12.5 µg/mL (≈ 41.8 µM) | MIC (B. fragilis NCTC 9344; read-out: MIC): 6.2 µg/mL (≈ 20.8 µM) | MBC (B. fragilis NCTC 9344): 6.2 µg/mL (≈ 20.8 µM) | MIC [1]: 3.1 µg/mL (≈ 10.4 µM) | MBC ([1]; strain D (MZ-R)): 3.1 µg/mL (≈ 10.4 µM) | MIC (B. fragilis WS-1; read-out: MIC): 6.2 µg/mL (≈ 20.8 µM) | MBC (B. fragilis WS-1): 6.2 µg/mL (≈ 20.8 µM) | MIC [2]: 6.2 µg/mL (≈ 20.8 µM) | MIC [3]: 25 µg/mL (≈ 83.7 µM) | MIC [4, 12]: < 0.8 µg/mL | MIC [5]: < 0.8 µg/mL | MIC [6]: 50 µg/mL (≈ 167 µM) | MIC [7]: 6.2 µg/mL (≈ 20.8 µM) | MIC [8, 13]: 100 µg/mL (≈ 335 µM) | MIC [9, 14]: 50 µg/mL (≈ 167 µM) | MIC [10]: > 100 µg/mL | MIC [11]: 100 µg/mL (≈ 335 µM) | ED (1 log reduction) (B. Fragilis ATCC 23745): < 40 mg/kg

CN1CCN(c2ccc3c(c2)N2CCN=C2C(c2ccccc2)=[N+]3[O-])CC1 [Example 4, 1,2-Dihydro-8-(4-methylpiperazinyl)-4-phenylimidazo[1,2-a]-quinoxaline 5-oxide]
MBC (B. fragilis NCTC 10581): 3.1 µg/mL (≈ 8.58 µM) | MIC (B. fragilis NCTC 10581; 48 h): 3.1 µg/mL (≈ 8.58 µM) | MBC (B. fragilis NCTC 9343): 3.1 µg/mL (≈ 8.58 µM) | MIC (B. fragilis NCTC 9343; 48 h): 3.1 µg/mL (≈ 8.58 µM) | MBC (B. fragilis NCTC 9344): 3.1 µg/mL (≈ 8.58 µM) | MIC (B. fragilis NCTC 9344; 48 h): 3.1 µg/mL (≈ 8.58 µM) | MBC ([1]; strain D (MZ-R)): 1.5 µg/mL (≈ 4.15 µM) | MIC ([1]; strain D (MZ-R), 48 h, 37° C., anaerobic, read-out: MIC): 1.5 µg/mL (≈ 4.15 µM) | MIC (B. fragilis WS-1; read-out: MIC): 6.2 µg/mL (≈ 17.2 µM) | MBC (B. fragilis WS-1): 6.2 µg/mL (≈ 17.2 µM) | MIC [2]: 6.2 µg/mL (≈ 17.2 µM) | MIC [3]: 12.5 µg/mL (≈ 34.6 µM) | MIC [4, 12]: 1.5 µg/mL (≈ 4.15 µM) | MIC [5]: 6.2 µg/mL (≈ 17.2 µM) | MIC [6]: 25 µg/mL (≈ 69.2 µM) | MIC [7]: 6.2 µg/mL (≈ 17.2 µM) | MIC ([8]; Bacteroides): 12.5 µg/mL (≈ 34.6 µM) | MIC ([9]; Peptostreptococcus): 12.5 µg/mL (≈ 34.6 µM) | MIC [10]: 25 µg/mL (≈ 69.2 µM) | MIC [11]: 25 µg/mL (≈ 69.2 µM) | ED (1 log reduction) (B. Fragilis ATCC 23745): 7.73 mg/kg

[O-][N+]1=C(c2ccccc2)C2=NCCN2c2cc(N3CCN(c4ccccc4)CC3)c(F)cc21 [Example 5, 1,2-Dihydro-7-fluoro-4-phenyl-8-(4-phenylpiperazinyl)imidazo[1,2-a]quinoxaline 5-oxide]
MIC (B. fragilis NCTC 10581; 48 h): 3.1 µg/mL (≈ 7.02 µM) | MIC (B. fragilis NCTC 9343; read-out: MIC): 1.5 µg/mL (≈ 3.4 µM) | MIC (B. fragilis NCTC 9344; read-out: MIC): 6.2 µg/mL (≈ 14 µM) | MIC [1]: 0.8 µg/mL (≈ 1.81 µM) | MIC (B. fragilis WS-1; read-out: MIC): 1.5 µg/mL (≈ 3.4 µM) | MIC [2]: 3.1 µg/mL (≈ 7.02 µM) | MIC [3]: 6.2 µg/mL (≈ 14 µM) | MIC [4, 12]: < 0.8 µg/mL | MIC [5]: < 0.8 µg/mL | MIC [6]: > 100 µg/mL | MIC [7]: 6.2 µg/mL (≈ 14 µM) | MIC [8, 13]: > 100 µg/mL | MIC [9, 14]: > 100 µg/mL | MIC [10]: > 100 µg/mL | MIC [11]: > 100 µg/mL | ED (1 log reduction) (B. Fragilis ATCC 23745): 11.7 mg/kg
